Experimental data: EP1590332B1, “A PROCESS FOR THE SYNTHESIS OF BISBENZIMIDAZOLES AND THEIR DERIVATIVES” (University of Delhi, priority 2003, dated 2004)
Like-named read-outs stand apart in the source and are kept apart here.

Columns and labels:
[1] = tested on: human brain malignant glioma cell line BMG-1; assay: MTT microtiter plate tetrazolium cytotoxicity assay; assay type: cell-based; settings: cells treated 1 h
Procedure: (§1) The cytotoxic effect of DMA and TBZ on exponentially growing tumor cells BMG-1 was studied as a function of time. Cells were treated for 1 h with the ligands and allowed to grow for 24, 48 and 72 hours. The MTT assay was performed at the specified time points. […] There seemed to be no effect on the metabolic status of the treated cells. However, strikingly the metabolic activity of the treated cells seemed to be enhanced as compared to the untreated control cells. To further support our results we have performed cell survival assay at 0.1uM, 10uM and 100uM concentration of drug having control as untreated cell. These experiments were done thrice in six sets. Exponentially growing cells were used in these experiments and cell survival was studied using Macrocolony assay. The plating efficiency was nearly 77%. […] The increase in cell number as a function of time for the control as well as the treated cells remained same. The radioprotective effect of the newly synthesized ligands were studied spectroscopically as well as in human brain glioma cell line BMG-1. The spectroscopic studies done included UV-Vis sepctroscopy, Fluorescence spectroscopy, Anisotropy measurements and Lifetime measurements and Thermal denaturation studies. Calf thymus DNA was chosen as the DNA material and ligands were incubated with the DNA and irradiated at different doses of radiation. […] At the cellular level also, the ligands were incubated with the cells and cell survival assay was performed to study the radioprotective effect of the new ligands in comparison to the parent molecule Hoechst 33342.
The cytotoxicity was determined using the MTT microtiter plate tetrazolium cytotoxicity assay (MTA). The human brain malignant glioma cell line BMG-1 was used. The cytotoxicity assay was performed using 96-well microtiter plates. 3000 cells/ well were plated and treatment of the ligands was done 24 hours post plating. […] 150 µl of DMSO was added and the plate was read at 540 nm with reference at 630 nm.

[2] = tested on: Hek cells; assay: Macrocolony assay (cell survival assay) with 5 Gy irradiation; assay type: cell-based, human; settings: 10uM drug added 1h before irradiation; for viability at 10 µM: Homo sapiens, HEK293, light or radiation study, read-out: Survival friction
Procedure: Both cell lines in triplicate were washed with HBSS, plated and grown for four days before harvesting using 0.05% trypsin, Depending on the treatments, 200 to 1200 cells were plated in 90 mm petri dishes and incubated at 37°C in 5% CO2 humidified atmosphere for 8 to 10 days. Colonies were fixed with methanol and stained with 1 % crystal violet Colonies containing more than 50 cells were counted.
Exponentially growing cells, 24 h after plating were irradiated at room temperature in growth medium with a Co-60 source (Gamma cell, AECL, Canada) at a dose rate of 0.5 to 1.2 Gy/min. Concentration of 10µm drug was added 1h before irradiation. Following this procedure, cells were grown for various time intervals to study growth kinetics and plated for Macrocolony assay as shown in the following Tables 3 & 4 and figure 1 & 2 Table 3

[3] = tested on: BMG-1 cells
Procedure: (§2) The cytotoxic effect of DMA and TBZ on exponentially growing tumor cells BMG-1 was studied as a function of time. Cells were treated for 1 h with the ligands and allowed to grow for 24, 48 and 72 hours. The MTT assay was performed at the specified time points. […] These experiments were done thrice in six sets. Exponentially growing cells were used in these experiments and cell survival was studied using Macrocolony assay.
(§3) Cells were washed with HBSS and harvested using 0.05% trypsin. […] Colonies were fixed in methanol and stained with 1% crystal violet. Proliferation Kinetics BMG-1 cells were seeded at 7000-8000 cells/ cm^2, and their proliferation kinetics was measured at 24-h intervals by trypsinizinig and counting total cells per flask using a hemocytometer.

[4] = tested on: BMG-1 cells; assay: cells; settings: Homo sapiens
Procedure: as §2, §3

[5] = in vitro; settings: bmg-1 cells
Procedure: as §2, §3

[6] = tested on: Calf thymus DNA; assay: Thermal denaturation / spectroscopic studies of ligand-DNA complex in presence and absence of radiation; assay type: binding
Procedure: as §1

[7] = tested on: BMG-1 cells; assay: Proliferation kinetics (growth kinetics); assay type: cell-based, human; settings: 100µM, exponentially growing cells
Procedure: The cytotoxic effect of DMA and TBZ on exponentially growing tumor cells BMG-1 was studied as a function of time. Cells were treated for 1 h with the ligands and allowed to grow for 24, 48 and 72 hours. The MTT assay was performed at the specified time points. […] There seemed to be no effect on the metabolic status of the treated cells. However, strikingly the metabolic activity of the treated cells seemed to be enhanced as compared to the untreated control cells. To further support our results we have performed cell survival assay at 0.1uM, 10uM and 100uM concentration of drug having control as untreated cell. These experiments were done thrice in six sets. Exponentially growing cells were used in these experiments and cell survival was studied using Macrocolony assay. The plating efficiency was nearly 77%. […] The increase in cell number as a function of time for the control as well as the treated cells remained same. […] The spectroscopic studies done included UV-Vis sepctroscopy, Fluorescence spectroscopy, Anisotropy measurements and Lifetime measurements and Thermal denaturation studies. […]
Cells were washed with HBSS and harvested using 0.05% trypsin. […] Proliferation Kinetics BMG-1 cells were seeded at 7000-8000 cells/ cm^2, and their proliferation kinetics was measured at 24-h intervals by trypsinizinig and counting total cells per flask using a hemocytometer. […]

[8] = Table 3: BMG-1, 5 Gy irradiation, 10uM drug added 1h before irradiation
[9] = light or radiation study, read-out: Survival fraction, 1uM, no irradiation
[10] = light or radiation study, read-out: Survival fraction, 10uM, no irradiation
[11] = light or radiation study, read-out: Survival fraction, 100uM, no irradiation
[12] = light or radiation study, read-out: Survival fraction, Table 3: BMG-1, 5 Gy irradiation, 10uM drug added 1h before irradiation
[13] = read-out: Survival fraction, 1uM + 5 Gy
[14] = read-out: Survival fraction, 10uM + 2Gy
[15] = read-out: Survival fraction, 10uM + 5 Gy (Table 2)
[16] = read-out: Survival fraction, 10uM + 10 Gy
[17] = read-out: Survival fraction, 100uM + 5 Gy
[18] = Ratio [ligand]/[DNA] 0.01, Dose 0 Gy
[19] = Ratio [ligand]/[DNA] 0.01, Dose 100 Gy
[20] = Ratio [ligand]/[DNA] 0.1, Dose 0 Gy
[21] = Ratio [ligand]/[DNA] 0.1, Dose 100 Gy

Question: With `COc1ccc(-c2nc3cc(-c4nc5cc(N6CCN(C)CC6)ccc5[nH]4)ccc3[nH]2)cc1OC` [DMA, 5-(4-methylpiperazin-1-yl)-2-[2'-(3,4-dimethoxyphenyl)-5'-benzimidazolyl]benzimidazole] as the compound, how does the cytotoxicity ([1]; 100µM, MTT up to 72 hours) read?
Answer: Its cytotoxicity is “do not show any cytotoxicity”.

Question: And the Plating efficiency % [2]?
Answer: Its Plating efficiency % is 27%.

Question: What about the viability at 10 µM [2] of the same compound?
Answer: The viability at 10 µM was 50%.

Question: What about the Plating efficiency % ([3]; 1uM + 5 Gy) of the same compound?
Answer: Its Plating efficiency % is 22%.

Question: And the Plating efficiency % ([3]; 1uM, no irradiation)?
Answer: Its Plating efficiency % is 65%.

Question: And the Plating efficiency % ([3]; 10uM + 2Gy)?
Answer: The Plating efficiency % was 63%.

Question: What about the Plating efficiency % ([3]; 10uM + 5 Gy (Table 2)) of the same compound?
Answer: The Plating efficiency % was 27%.

Question: And the Plating efficiency % ([3]; 10uM + 10 Gy)?
Answer: The Plating efficiency % was 4%.

Question: And the Plating efficiency % ([3]; 10uM, no irradiation)?
Answer: Its Plating efficiency % is 67%.

Question: What about the Plating efficiency % ([3]; 100uM + 5 Gy) of the same compound?
Answer: The Plating efficiency % was 25%.

Question: What about the Plating efficiency % ([3]; 100uM, no irradiation) of the same compound?
Answer: The Plating efficiency % was 64%.

Question: What about the Plating efficiency % [3, 8] of the same compound?
Answer: Its Plating efficiency % is 27%.

Question: And the viability at 1 µM [4, 9]?
Answer: The viability at 1 µM was 97%.

Question: What about the viability at 10 µM [4, 10] of the same compound?
Answer: Its viability at 10 µM is 100%.

Question: And the viability at 100 µM [4, 11]?
Answer: Its viability at 100 µM is 95%.

Question: And the viability at 10 µM [4, 12]?
Answer: Its viability at 10 µM is 40%.

Question: What about the viability at 1 µM [4, 13] of the same compound?
Answer: Its viability at 1 µM is 32%.

Question: And the viability at 10 µM [4, 14]?
Answer: Its viability at 10 µM is 93%.

Question: And the viability at 10 µM [4, 15]?
Answer: The viability at 10 µM was 40%.

Question: And the viability at 10 µM [4, 16]?
Answer: Its viability at 10 µM is 6%.

Question: And the viability at 100 µM [4, 17]?
Answer: The viability at 100 µM was 38%.

Question: And the cytotoxicity at 10 µM [5]?
Answer: Its cytotoxicity at 10 µM is 3%.

Question: What about the viability at 100 µM [5] of the same compound?
Answer: Its viability at 100 µM is 73%.

Question: Which Tm [6, 18] does the source give for `CN1CCN(c2ccc3nc(-c4ccc5nc(-c6ccc(O)cc6)[nH]c5c4)[nH]c3c2)CC1` [Hoechst 33258, reference compound] here?
Answer: Its Tm is 71.5 °C.

Question: What about the Tm [6, 19] of the same compound?
Answer: Its Tm is 67.5 °C.

Question: And the Tm [6, 20]?
Answer: The Tm was 81.7 °C.

Question: What about the Tm [6, 21] of the same compound?
Answer: Its Tm is 79.3 °C.

Question: With `CCOc1ccc(-c2nc3ccc(-c4nc5ccc(N6CCN(C)CC6)cc5[nH]4)cc3[nH]2)cc1` [Hoechst 33342, reference compound] as the compound, how does the cytotoxicity ([1]; 10µM, MTT at 24, 48 and 72 hours) read?
Answer: Its cytotoxicity is “highly cytotoxic”.

Question: And the Plating efficiency % [2]?
Answer: The Plating efficiency % was 20%.

Question: And the viability at 10 µM [2]?
Answer: Its viability at 10 µM is 10%.

Question: And the Plating efficiency % [3, 8]?
Answer: The Plating efficiency % was 20%.

Question: And the “effect on cell survival” value ([3]; low concentrations, no irradiation)?
Answer: Its value is “do not seem to have considerable effect on cell survival”.

Question: And the viability at 10 µM [4, 12]?
Answer: The viability at 10 µM was 10%.

Question: And the viability at 100 µM ([5]; cell survival, 100µM, no irradiation)?
Answer: Its viability at 100 µM is 10%.

Question: What about the viability at 10 µM ([5]; surviving fraction, 10µM, no irradiation) of the same compound?
Answer: The viability at 10 µM was 45%.

Question: For `COc1cc(-c2nc3cc(-c4nc5cc(-c6nc7cc(N8CCN(C)CC8)ccc7[nH]6)ccc5[nH]4)ccc3[nH]2)ccc1O` [TBZ, 5-(4-methylpiperazine-1-yl)-2-[2'-{2"-(4-hydroxy-3-methoxyphenyl)-5"-benzimidazolyl}-5'-benzimidazolyl]benzimidazole], which cytotoxicity ([1]; 100µM, MTT up to 72 hours) is on record?
Answer: The cytotoxicity was “do not show any cytotoxicity”.

Question: And the Plating efficiency % [2]?
Answer: Its Plating efficiency % is 25%.

Question: And the viability at 10 µM [2]?
Answer: The viability at 10 µM was 48%.

Question: And the Tm [6, 18]?
Answer: The Tm was 74.3 °C.

Question: What about the Tm [6, 19] of the same compound?
Answer: The Tm was 75 °C.

Question: What about the Tm [6, 20] of the same compound?
Answer: The Tm was 77.7 °C.

Question: And the Tm [6, 21]?
Answer: Its Tm is 81.5 °C.

Question: And the “growth kinetics of the treated cells” value [7]?
Answer: Its value is “did not differ from the untreated cells”.

Question: And the Plating efficiency % ([3]; 1uM + 5 Gy)?
Answer: The Plating efficiency % was 21%.

Question: What about the Plating efficiency % ([3]; 1uM, no irradiation) of the same compound?
Answer: The Plating efficiency % was 73%.

Question: What about the Plating efficiency % ([3]; 10uM + 2Gy) of the same compound?
Answer: Its Plating efficiency % is 60%.

Question: And the Plating efficiency % ([3]; 10uM + 5 Gy (Table 2))?
Answer: The Plating efficiency % was 20%.

Question: And the Plating efficiency % ([3]; 10uM + 10 Gy)?
Answer: Its Plating efficiency % is 3.5%.

Question: What about the Plating efficiency % ([3]; 10uM, no irradiation) of the same compound?
Answer: The Plating efficiency % was 71%.

Question: And the effect on growth ([3]; 10µM, no irradiation)?
Answer: The effect on growth was “increase in growth”.

Question: What about the Plating efficiency % ([3]; 100uM + 5 Gy) of the same compound?
Answer: Its Plating efficiency % is 18%.

Question: What about the Plating efficiency % ([3]; 100uM, no irradiation) of the same compound?
Answer: Its Plating efficiency % is 69%.

Question: What about the Plating efficiency % [3, 8] of the same compound?
Answer: Its Plating efficiency % is 20%.

Question: And the “radioprotection in comparison to Hoechst 33342” value ([3]; conclusion from BMG-1 and Hek cell lines)?
Answer: The value was “better radioprotectors”.

Question: And the effect on growth ([3]; low concentrations (upto 10µM), no irradiation)?
Answer: Its effect on growth is “slight stimulatory effect on growth”.

Question: And the viability at 1 µM [4, 9]?
Answer: The viability at 1 µM was 107%.

Question: What about the viability at 10 µM [4, 10] of the same compound?
Answer: The viability at 10 µM was 105%.

Question: What about the viability at 100 µM [4, 11] of the same compound?
Answer: The viability at 100 µM was 102%.

Question: And the viability at 10 µM [4, 12]?
Answer: The viability at 10 µM was 30%.

Question: And the viability at 1 µM [4, 13]?
Answer: Its viability at 1 µM is 31%.

Question: And the viability at 10 µM [4, 14]?
Answer: Its viability at 10 µM is 89%.

Question: What about the viability at 10 µM [4, 15] of the same compound?
Answer: The viability at 10 µM was 30%.

Question: And the viability at 10 µM [4, 16]?
Answer: Its viability at 10 µM is 5%.

Question: What about the viability at 100 µM [4, 17] of the same compound?
Answer: The viability at 100 µM was 26%.

Question: And the cytotoxicity at 100 µM [5]?
Answer: Its cytotoxicity at 100 µM is 9%.

Question: What about the viability at 100 µM [5] of the same compound?
Answer: The viability at 100 µM was 92%.
